Data reported in patent US20040063662A1, “Selenophene anti-tumor agents” (priority 1996, published 2004).

Assays:
DU-145 = test: NCI human tumor cell panel: DU-145 (Prostate Cancer); assay type: cell-based; conditions: DU-145, Prostate Cancer
HOP-62 = test: NCI human tumor cell panel: HOP-62 (Non-Small Cell Lung Cancer); assay type: cell-based; conditions: HOP-62, Non-Small Cell Lung Cancer
HS 578T = test: NCI human tumor cell panel: HS 578T (Breast Cancer); assay type: cell-based; conditions: Breast Cancer
HOP-92 = test: NCI human tumor cell panel: HOP-92 (Non-Small Cell Lung Cancer)
OVCAR-8 = test: NCI human tumor cell panel: OVCAR-8 (Ovarian Cancer); assay type: cell-based; conditions: OVCAR-8, Ovarian Cancer
SF-295 = test: NCI human tumor cell panel: SF-295 (CNS Cancer); assay type: cell-based; conditions: SF-295, CNS Cancer
HT29 = test: NCI human tumor cell panel: HT29 (Colon Cancer); assay type: cell-based; conditions: HT-29, HT29, Colon Cancer
CCRF-CEM = test: NCI human tumor cell panel: CCRF-CEM (Leukemia); assay type: cell-based; conditions: Leukemia
U251 = test: NCI human tumor cell panel: U251 (CNS Cancer); assay type: cell-based; conditions: U-251, U251, CNS Cancer
PC-3 = test: NCI human tumor cell panel: PC-3 (Prostate Cancer); assay type: cell-based; conditions: PC-3, Prostate Cancer
SN12C = test: NCI human tumor cell panel: SN12C (Renal Cancer); assay type: cell-based; conditions: Renal Cancer
HCT-15 = test: NCI human tumor cell panel: HCT-15 (Colon Cancer); assay type: cell-based; conditions: HCT-15, Colon Cancer
ACHN = test: NCI human tumor cell panel: ACHN (Renal Cancer); assay type: cell-based; conditions: Renal Cancer
SNB-19 = test: NCI human tumor cell panel: SNB-19 (CNS Cancer); assay type: cell-based; conditions: SNB-19, CNS Cancer
SW-620 = test: NCI human tumor cell panel: SW-620 (Colon Cancer); assay type: cell-based; conditions: SW-620, Colon Cancer, read-out: Log10 TGI (converted)
NCI-H23 = test: NCI human tumor cell panel: NCI-H23 (Non-Small Cell Lung Cancer); assay type: cell-based; conditions: NCI-H23, Non-Small Cell Lung Cancer
BT-549 = test: NCI human tumor cell panel: BT-549 (Breast Cancer); assay type: cell-based; conditions: BT-549, Breast Cancer
UO-31 = test: NCI human tumor cell panel: UO-31 (Renal Cancer); assay type: cell-based; conditions: UO-31, Renal Cancer
MDA-N = test: NCI human tumor cell panel: MDA-N (Breast Cancer); assay type: cell-based; conditions: Breast Cancer
RPMI-8226 = test: NCI human tumor cell panel: RPMI-8226 (Leukemia); assay type: cell-based; conditions: RPMI-8226, Leukemia
HCT-116 = test: NCI human tumor cell panel: HCT-116 (Colon Cancer); assay type: cell-based; conditions: HCT-116, Colon Cancer
A549/ATCC = test: NCI human tumor cell panel: A549/ATCC (Non-Small Cell Lung Cancer); assay type: cell-based; conditions: Non-Small Cell Lung Cancer
LOX IMVI = test: NCI human tumor cell panel: LOX IMVI (Melanoma); assay type: cell-based; conditions: Melanoma
OVCAR-3 = test: NCI human tumor cell panel: OVCAR-3 (Ovarian Cancer); assay type: cell-based; conditions: OVCAR-3, Ovarian Cancer
NCI-H522 = test: NCI human tumor cell panel: NCI-H522 (Non-Small Cell Lung Cancer)
MALME-3M = test: NCI human tumor cell panel: MALME-3M (Melanoma); assay type: cell-based; conditions: MALME-3M, Melanoma
EKVX = test: NCI human tumor cell panel: EKVX (Non-Small Cell Lung Cancer); assay type: cell-based; conditions: Non-Small Cell Lung Cancer
MOLT-4 = test: NCI human tumor cell panel: MOLT-4 (Leukemia); assay type: cell-based; conditions: MOLT-4, Leukemia
OVCAR-4 = test: NCI human tumor cell panel: OVCAR-4 (Ovarian Cancer); assay type: cell-based; conditions: OVCAR-4, Ovarian Cancer
UACC-62 = test: NCI human tumor cell panel: UACC-62 (Melanoma); assay type: cell-based; conditions: UACC-62, Melanoma
SF-539 = test: NCI human tumor cell panel: SF-539 (CNS Cancer); assay type: cell-based; conditions: SF-539, CNS Cancer
786-0 = test: NCI human tumor cell panel: 786-0 (Renal Cancer); assay type: cell-based; conditions: 786-0, Renal Cancer
[1] = read-out: Log10 GI50 (converted)
[2] = read-out: Log10 TGI (converted)

O=Cc1ccc(-c2ccc(-c3cccs3)[se]2)s1 [NSC 675346]
GI50 (DU-145; [1]): 28.8 µM
IC (TGI) (DU-145; [2]): > 100 µM
GI50 (HOP-62; [1]): 64.6 µM
IC (TGI) (HOP-62; [2]): > 100 µM
GI50 (HS 578T; [1]): 23.4 µM
IC (TGI) (HS 578T; [2]): > 100 µM
GI50 (HOP-92; HOP-92, read-out: Log10 GI50 (converted)): 18.6 µM
IC (TGI) (HOP-92; HOP-92, read-out: Log10 TGI): 70.8 µM
GI50 (OVCAR-8; [1]): 4.47 µM
IC (TGI) (OVCAR-8; [2]): > 100 µM
GI50 (SF-295; [1]): 21.4 µM
IC (TGI) (SF-295; [2]): 69.2 µM
GI50 (HT29; [1]): > 100 µM
IC (TGI) (HT29; [2]): > 100 µM
GI50 (CCRF-CEM; [1]): > 100 µM
IC (TGI) (CCRF-CEM; [2]): > 100 µM
GI50 (U251; [1]): 0.0575 µM
IC (TGI) (U251; [2]): 25.7 µM
GI50 (PC-3; [1]): 61.7 µM
IC (TGI) (PC-3; [2]): > 100 µM
GI50 (SN12C; [1]): > 100 µM
IC (TGI) (SN12C; [2]): > 100 µM
GI50 (HCT-15; [1]): 18.6 µM
IC (TGI) (HCT-15; [2]): > 100 µM
GI50 (ACHN; [1]): 22.9 µM
IC (TGI) (ACHN; [2]): > 100 µM
GI50 (SNB-19; [1]): 21.9 µM
IC (TGI) (SNB-19; [2]): 95.5 µM
IC (TGI) (SW-620): > 100 µM
GI50 (NCI-H23; [1]): 14.5 µM
IC (TGI) (NCI-H23; [2]): 58.9 µM
GI50 (BT-549; [1]): ≥ 100 µM
IC (TGI) (BT-549; [2]): > 100 µM
GI50 (UO-31; [1]): 35.5 µM
IC (TGI) (UO-31; [2]): > 100 µM
GI50 (MDA-N; [1]): > 100 µM
IC (TGI) (MDA-N; [2]): > 100 µM
GI50 (RPMI-8226; [1]): > 100 µM
IC (TGI) (RPMI-8226; read-out: Log10 TGI): > 100 µM
GI50 (HCT-116; [1]): 0.115 µM
IC (TGI) (HCT-116; [2]): > 100 µM
GI50 (A549/ATCC; [1]): 55 µM
IC (TGI) (A549/ATCC; [2]): > 100 µM
GI50 (LOX IMVI; [1]): 19.5 µM
IC (TGI) (LOX IMVI; [2]): > 100 µM
GI50 (OVCAR-3; [1]): 0.0191 µM
IC (TGI) (OVCAR-3; [2]): 21.4 µM
GI50 (NCI-H522; NCI-H522, read-out: Log10 GI50 (converted)): 33.1 µM
IC (TGI) (NCI-H522; NCI-H522, read-out: Log10 TGI): > 100 µM
GI50 (MALME-3M; [1]): 34.7 µM
IC (TGI) (MALME-3M; [2]): > 100 µM
GI50 (EKVX; [1]): 77.6 µM
IC (TGI) (EKVX; [2]): > 100 µM
GI50 (MOLT-4; [1]): > 100 µM
IC (TGI) (MOLT-4; [2]): > 100 µM
GI50 (OVCAR-4; [1]): 0.12 µM
IC (TGI) (OVCAR-4; [2]): 26.9 µM
GI50 (UACC-62; [1]): < 0.01 µM
IC (TGI) (UACC-62; [2]): 0.0282 µM
GI50 (SF-539; [1]): 51.3 µM
IC (TGI) (SF-539; [2]): > 100 µM
GI50 (786-0; [1]): 13.5 µM
IC (TGI) (786-0; [2]): > 100 µM
